Experimental data reported in US20220119355A1, “SATURATED-RING-FUSED DIHYDROPYRIMIDINONE OR DIHYDROTRIAZINONE COMPOUNDS AND PHARMACEUTICAL USE THEREOF” (Japan Tobacco Inc., priority 2018, published 2022).

Tests used:
[1] = target: T1, human RORγ (Homo sapiens, UniProt P51449); experiment: In-vitro reporter gene assay for inhibitory activity against RORγ transcription, Test Method A (GAL4-hRORγ LBD / pG5-Luc in CHO cells); assay type: cell-based; conditions: luciferase reporter, 2 days
T1 construct: from Ser253 to Lys518 for human RORγ; expressed in transfected cells; host or cells: CHO cells (transient co-transfection with pG5-Luc)
T1 sequence (P51449 253-518): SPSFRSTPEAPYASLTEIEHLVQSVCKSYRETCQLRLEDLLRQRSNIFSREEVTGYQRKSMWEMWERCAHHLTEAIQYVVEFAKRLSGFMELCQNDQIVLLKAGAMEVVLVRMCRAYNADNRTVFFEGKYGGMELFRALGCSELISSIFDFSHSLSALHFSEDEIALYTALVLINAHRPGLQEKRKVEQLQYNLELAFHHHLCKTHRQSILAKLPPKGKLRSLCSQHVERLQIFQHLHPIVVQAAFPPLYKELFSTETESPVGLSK
Description: (§1) In-Vitro Assay for Inhibitory Activity Against RORγ Transcription
(§2) Inhibitory activity against RORγ transcription was assessed for test compounds by either of the following Test Method A or B of reporter gene assay.
(§3) cDNAs encoding human and mouse RORγ ligand binding domains (LBD) were obtained based on the sequences of human RORγ (Genbank registered number NM_005060.3) and mouse RORγ (Genbank registered number NM_011281.2) (LBD sequences: from Ser253 to Lys518 for human RORγ; from Ile251 to Lys516 for mouse RORγ).
(§4) LBD cDNAs of human and mouse RORγ were inserted into pFA-CMV vector (Stratagene), which expresses GAL4-DNA binding domain fusion protein. The resulting plasmids are hereinafter referred to as GAL4-hRORγ plasmid and GAL4-mRORγ plasmid, respectively.
(§5) GAL4-hRORγ plasmid or GAL4-mRORγ plasmid was transiently co-transfected into Chinese hamster ovary cells (CHO cells) with pG5-Luc (Promega), reporter plasmid expressing firefly luciferase in a GAL4-dependent manner.
(§6) TransIT (Registered trademark) CHO Transfection Kit (Mirus) was used to co-transfect CHO cells with the plasmids. One day prior to the assay, CHO cells were suspended in HAM F-12 Nutrient medium containing 10% (v/v) fetal bovine serum and seeded at 6×10^6 cells per 175 cm^2 cell culture flask each. 54 μL of TransIT (Registered trademark) CHO reagent was added into a 15 mL tube containing 1.16 mL of HAM F-12 Nutrient medium without fetal bovine serum, and then mixed and incubated at room temperature for 10 minutes. 36 μL of a plasmid solution containing 400 ng of GAL4-hRORγ plasmid, 9000 ng of pG5-Luc plasmid, and 8600 ng of pcDNA3 plasmid were added into the tube and mixed gently. In the case of mouse assay, a plasmid solution containing 250 ng of GAL4-mRORγ plasmid, 9000 ng of pG5-Luc plasmid, and 8750 ng of pcDNA3 plasmid was added, instead. The mixture was incubated at room temperature for 10 minutes. 9 μL each of CHO Mojo Reagent were then added into each tube and mixed gently. The mixture was incubated at room temperature for 10 minutes. The resulting transfection reagent was applied to the cell culture. After incubation at 37° C., 5% CO2 for 4 hours, the plasmid-transfected CHO cells were harvested by trypsin treatment. The collected cells were resuspended in culture medium and plated into a 384-well-white plate at 8,000 cells/50 μL/well. The plate was let stand at room temperature for 1 hour and then further incubated at 37° C., 5% CO2 for 3 hours. A test compound was dissolved in DMSO to obtain a concentration of 10 mM. Each solution was serially diluted with DMSO and further diluted with culture medium just before use. The test compound solutions were added. to the cells in the plate at 8 different concentrations. The final concentration of DMSO was 0.2% (v/v). After the addition of test compound, the cells were incubated at […], 5% CO2 for 2 days.
(§7) RORγ transcriptional activity was detected as the intracellular luciferase activity using SteadyLite HTS Reporter Gene Assay System (Perkin Elmer). SteadyLite Reagent was diluted five-fold with Extension buffer (10 mM Tricine, 0.2% (w/v) bovine serum albumin, 0.02% (v/v) Tween-20) to obtain a luciferase substrate solution. After the measurement of the cell viability with Resazurin, the medium was removed in the plate and the luciferase substrate solution was added thereto. After the incubation at room temperature for 10 minutes, luminescence of each well was measured with a microplate reader. The luciferase activity derived from the luminescence count in a vehicle-control well treated with 0.2% DMSO alone was defined as 100%, and the luciferase activity after treatment with the test compound was calculated as a percentage, %-of-control, based on the value of the vehicle-control. An EC50 value of the test compound was calculated by curve fitting with GraphPad Prism. The luminescence counts at the concentration of test compound where cytotoxicity was observed were excluded from data analysis. […]

[2] = target: T2, mouse RORγ (Mus musculus, UniProt P51450); experiment: In-vitro reporter gene assay for inhibitory activity against RORγ transcription, Test Method A (GAL4-mRORγ LBD / pG5-Luc in CHO cells); assay type: cell-based; conditions: luciferase reporter, 2 days
T2 construct: from Ile251 to Lys516 for mouse RORγ; expressed in transfected cells; host or cells: CHO cells (transient co-transfection with pG5-Luc)
T2 sequence (P51450 251-516): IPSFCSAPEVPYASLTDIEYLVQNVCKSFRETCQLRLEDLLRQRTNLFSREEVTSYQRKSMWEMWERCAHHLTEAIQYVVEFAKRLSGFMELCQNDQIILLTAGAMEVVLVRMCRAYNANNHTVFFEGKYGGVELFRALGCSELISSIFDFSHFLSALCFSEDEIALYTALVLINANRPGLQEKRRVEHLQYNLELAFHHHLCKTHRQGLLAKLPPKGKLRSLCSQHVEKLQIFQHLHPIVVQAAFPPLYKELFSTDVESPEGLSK
Description: as §1, §2, §3, §4, §5, §6, §7

Row | Structure (SMILES) | EC50 [1] [µM] | EC50 [2] [µM]
1 | COCCC1CCC2(c3ccc(CCC(C)(C)C)c(Cl)c3)NC(=O)N(CCC(=O)O)C=C12 (single isomer, unassigned) [Example 27, 3-{7a-[3-Chloro-4-(3,3-dimethyl-butyl)phenyl]-5-(2-methoxy-ethyl)-2-oxo-1,2,5,6,7,7a-hexahydro-cyclopentapyrimidin-3-yl}propionate] | 0.027 | 0.039
2 | CN(C)CCC1CCC2(c3ccc(CCC(C)(C)C)c(Cl)c3)NC(=O)N(CCC(=O)O)C=C12 (single isomer, unassigned) [Example 28] | > 20 | > 20
3 | CC(C)(C)CCc1ccc(C23CCC(CO)C2=CN(CCC(=O)O)C(=O)N3)cc1Cl (single isomer, unassigned) [Example 29] | 0.173 | 0.103
4 | CC(C)(C)CCc1ccc(C23CC(C)(C)CC2=CN(CCC(=O)O)C(=O)N3)cc1Cl (single isomer, unassigned) [Example 32] | 0.021 | 0.018
5 | CC(C)(C)CCc1ccc(C23CC(C)(C)CC2=CN(CCC(=O)O)C(=O)N3)cc1Cl (single isomer, unassigned) [Example 33] | 2.96 | > 3.2
6 | CC(C)(C)CCc1ccc([C@]23CCCC(C)(C)C2=CN(CCC(=O)O)C(=O)N3)cc1Cl (single isomer, unassigned) [Example 37] | 3.87 | 5.51
7 | CC(C)(C)CCc1ccc([C@@]23CCCC(C)(C)C2=CN(CCC(=O)O)C(=O)N3)cc1Cl (single isomer, unassigned) [Example 38] | 0.011 | 0.021
8 | CC(C)(C)CCc1ccc([C@]23CCCCC2=CN(CCC(=O)O)C(=O)N3)cc1Cl (single isomer, unassigned) [Example 40] | 4.64 | 5.33
9 | CC(C)(C)CCc1ccc([C@@]23CCCCC2=CN(CCC(=O)O)C(=O)N3)cc1Cl (single isomer, unassigned) [Example 41] | 0.017 | 0.013
10 | CC1CCC2(c3ccc(CCC(C)(C)C)c(Cl)c3)NC(=O)N(CCC(=O)O)C=C2C1 (single isomer, unassigned) [Example 66] | 0.024 | 0.03
11 | COC1CC[C@]2(c3ccc(CCC(C)(C)C)c(Cl)c3)NC(=O)N(CCC(=O)O)C=C2C1 (single isomer, unassigned) [Example 67] | 4.72 | 8.34
12 | COC1CC[C@@]2(c3ccc(CCC(C)(C)C)c(Cl)c3)NC(=O)N(CCC(=O)O)C=C2C1 (single isomer, unassigned) [Example 68] | 0.015 | 0.016
13 | CC1CCC2(c3ccc(CCC(C)(C)C)c(Cl)c3)NC(=O)N(CCC(=O)O)C=C2C1 (single isomer, unassigned) [Example 69] | 0.015 | 0.027
14 | C[C@H]1CC2=CN(CCC(=O)O)C(=O)NC2(c2ccc(CCC(C)(C)C)c(Cl)c2)CO1 (single isomer, unassigned) [Example 70] | 0.541 | 0.516
15 | C[C@@H]1CC2=CN(CCC(=O)O)C(=O)NC2(c2ccc(CCC(C)(C)C)c(Cl)c2)CO1 (single isomer, unassigned) [Example 71] | 0.01 | 0.007
16 | C[C@@H]1CC2=CN(C34CC(C(=O)O)(C3)C4)C(=O)NC2(c2ccc(CCC(C)(C)C)c(Cl)c2)CO1 (single isomer, unassigned) [Example 72] | 0.028 | 0.015
17 | CC(C)(C)CCc1ccc(C23CCC(C(F)(F)F)CC2=CN(C24CC(C(=O)O)(C2)C4)C(=O)N3)cc1Cl (single isomer, unassigned) [Example 75] | 0.061 | 0.038
18 | COC1CC[C@]2(c3ccc(CCC(C)(C)C)c(Cl)c3)NC(=O)N(C34CC(C(=O)O)(C3)C4)C=C2C1 (single isomer, unassigned) [Example 76] | 2.41 | 3.03
19 | COC1CC[C@@]2(c3ccc(CCC(C)(C)C)c(Cl)c3)NC(=O)N(C34CC(C(=O)O)(C3)C4)C=C2C1 (single isomer, unassigned) [Example 77] | 0.024 | 0.031
20 | CC1CCC[C@]2(c3ccc(CCC(C)(C)C)c(Cl)c3)NC(=O)N(C34CC(C(=O)O)(C3)C4)C=C12 (single isomer, unassigned) [Example 78] | 2.2 | > 3.2
21 | CC1CCC[C@@]2(c3ccc(CCC(C)(C)C)c(Cl)c3)NC(=O)N(C34CC(C(=O)O)(C3)C4)C=C12 (single isomer, unassigned) [Example 79] | 0.018 | 0.022
22 | CC1CC[C@]2(c3ccc(CCC(C)(C)C)c(Cl)c3)NC(=O)N(CCC(=O)O)C=C2C1 (single isomer, unassigned) [Example 80] | > 10 | > 10
23 | CC1CC[C@@]2(c3ccc(CCC(C)(C)C)c(Cl)c3)NC(=O)N(CCC(=O)O)C=C2C1 (single isomer, unassigned) [Example 81] | 0.013 | 0.019
24 | CC(C)(C)CCc1ccc([C@]23CCC(C)(C)CC2=CN(CCC(=O)O)C(=O)N3)cc1Cl (single isomer, unassigned) [Example 82] | 9.87 | 9.79
25 | CC(C)(C)CCc1ccc([C@@]23CCC(C)(C)CC2=CN(CCC(=O)O)C(=O)N3)cc1Cl (single isomer, unassigned) [Example 83] | 0.014 | 0.018
26 | COCC1CC[C@]2(c3ccc(CCC(C)(C)C)c(Cl)c3)NC(=O)N(C34CC(C(=O)O)(C3)C4)C=C2C1 (single isomer, unassigned) [Example 84] | > 10 | > 10
27 | COCC1CC[C@@]2(c3ccc(CCC(C)(C)C)c(Cl)c3)NC(=O)N(C34CC(C(=O)O)(C3)C4)C=C2C1 (single isomer, unassigned) [Example 85] | 0.033 | 0.073
28 | CC(C)(C)CCc1ccc([C@]23CCCCC2=CN(C24CC(C(=O)O)(C2)C4)C(=O)N3)cc1Cl [Example 53] | > 3.2 | 2.73
29 | CC(C)(C)CCc1ccc([C@@]23CCCCC2=CN(C24CC(C(=O)O)(C2)C4)C(=O)N3)cc1Cl [Example 54, 3-{(S)-8a-[3-Chloro-4-(3,3-dimethyl-butyl)phenyl]-2-oxo-1,5,6,7,8,8a-hexahydro-2H-quinazolin-3-yl}bicyclo[1.1.1]pentane-1-carboxylic acid] | 0.064 | 0.035
